Measured values published in ChEMBL document CHEMBL3085767, “Polypharmacology - foe or friend?” (J Med Chem, 2013).

Experiments:
[1] = target: D(2) dopamine receptor (Homo sapiens, UniProt P14416); test: Binding affinity to dopamine D2 receptor (unknown origin) by radioligand binding assay
[2] = target: T1, Adrenergic receptor alpha-1 (Homo sapiens, UniProt P35348+P25100+P35368); test: Binding affinity to adrenergic alpha1 receptor (unknown origin) by radioligand binding assay
T1 sequence (P35348 whole entry): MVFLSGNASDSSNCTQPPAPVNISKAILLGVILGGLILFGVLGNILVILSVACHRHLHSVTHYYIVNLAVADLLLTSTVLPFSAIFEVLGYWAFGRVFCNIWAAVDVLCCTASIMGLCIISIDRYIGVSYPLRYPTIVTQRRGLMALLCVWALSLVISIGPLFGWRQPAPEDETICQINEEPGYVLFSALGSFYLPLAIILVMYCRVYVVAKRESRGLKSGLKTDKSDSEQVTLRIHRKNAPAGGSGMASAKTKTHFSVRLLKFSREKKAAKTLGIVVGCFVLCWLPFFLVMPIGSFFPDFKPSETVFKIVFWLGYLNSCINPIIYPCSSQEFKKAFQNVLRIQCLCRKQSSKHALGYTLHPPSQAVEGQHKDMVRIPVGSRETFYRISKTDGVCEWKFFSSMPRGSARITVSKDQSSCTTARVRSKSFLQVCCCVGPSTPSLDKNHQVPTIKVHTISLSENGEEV
T1 sequence (P25100 whole entry): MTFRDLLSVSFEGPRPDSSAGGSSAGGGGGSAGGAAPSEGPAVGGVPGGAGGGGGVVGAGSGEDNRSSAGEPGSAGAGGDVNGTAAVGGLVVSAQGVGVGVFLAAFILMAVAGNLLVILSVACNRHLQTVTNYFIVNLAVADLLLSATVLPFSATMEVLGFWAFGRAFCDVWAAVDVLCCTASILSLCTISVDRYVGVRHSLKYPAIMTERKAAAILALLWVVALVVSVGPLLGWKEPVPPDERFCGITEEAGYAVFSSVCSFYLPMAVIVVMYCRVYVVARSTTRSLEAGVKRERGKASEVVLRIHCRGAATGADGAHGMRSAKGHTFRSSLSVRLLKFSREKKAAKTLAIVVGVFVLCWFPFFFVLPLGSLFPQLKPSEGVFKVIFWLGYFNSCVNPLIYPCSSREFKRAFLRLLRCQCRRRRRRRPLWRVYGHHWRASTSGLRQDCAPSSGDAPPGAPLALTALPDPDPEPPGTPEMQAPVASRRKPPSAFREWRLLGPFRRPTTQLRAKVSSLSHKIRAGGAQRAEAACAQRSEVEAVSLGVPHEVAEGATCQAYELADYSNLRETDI
T1 sequence (P35368 whole entry): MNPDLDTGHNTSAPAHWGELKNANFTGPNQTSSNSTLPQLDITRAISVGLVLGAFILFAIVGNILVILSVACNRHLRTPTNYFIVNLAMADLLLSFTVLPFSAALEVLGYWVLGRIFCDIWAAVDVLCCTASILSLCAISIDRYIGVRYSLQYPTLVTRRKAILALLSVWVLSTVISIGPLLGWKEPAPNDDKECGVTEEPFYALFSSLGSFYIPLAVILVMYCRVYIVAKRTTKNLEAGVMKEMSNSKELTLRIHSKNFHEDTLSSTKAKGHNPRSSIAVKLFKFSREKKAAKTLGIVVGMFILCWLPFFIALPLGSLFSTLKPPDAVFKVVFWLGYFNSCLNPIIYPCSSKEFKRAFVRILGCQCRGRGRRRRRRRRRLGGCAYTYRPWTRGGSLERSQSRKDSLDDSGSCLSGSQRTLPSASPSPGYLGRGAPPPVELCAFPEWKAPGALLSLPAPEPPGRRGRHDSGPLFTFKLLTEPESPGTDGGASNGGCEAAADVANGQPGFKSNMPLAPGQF

[3] = target: 5-hydroxytryptamine receptor 7 (Homo sapiens, UniProt P34969); test: Binding affinity to 5HT7 receptor (unknown origin) by radioligand binding assay
Sequence of 5-hydroxytryptamine receptor 7 (P34969 whole entry): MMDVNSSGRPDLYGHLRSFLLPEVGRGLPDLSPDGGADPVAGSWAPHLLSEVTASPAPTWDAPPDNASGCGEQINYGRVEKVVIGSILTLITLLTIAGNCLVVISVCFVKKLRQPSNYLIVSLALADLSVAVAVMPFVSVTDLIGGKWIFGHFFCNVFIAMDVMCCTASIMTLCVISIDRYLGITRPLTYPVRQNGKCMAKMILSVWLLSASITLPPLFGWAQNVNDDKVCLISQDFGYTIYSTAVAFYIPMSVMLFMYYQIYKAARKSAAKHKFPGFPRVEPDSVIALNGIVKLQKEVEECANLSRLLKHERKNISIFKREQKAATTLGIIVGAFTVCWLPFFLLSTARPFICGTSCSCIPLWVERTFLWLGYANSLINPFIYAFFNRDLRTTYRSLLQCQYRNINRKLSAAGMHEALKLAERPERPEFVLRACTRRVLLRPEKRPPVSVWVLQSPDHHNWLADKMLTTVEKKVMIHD

Sequence of D(2) dopamine receptor (P14416 whole entry): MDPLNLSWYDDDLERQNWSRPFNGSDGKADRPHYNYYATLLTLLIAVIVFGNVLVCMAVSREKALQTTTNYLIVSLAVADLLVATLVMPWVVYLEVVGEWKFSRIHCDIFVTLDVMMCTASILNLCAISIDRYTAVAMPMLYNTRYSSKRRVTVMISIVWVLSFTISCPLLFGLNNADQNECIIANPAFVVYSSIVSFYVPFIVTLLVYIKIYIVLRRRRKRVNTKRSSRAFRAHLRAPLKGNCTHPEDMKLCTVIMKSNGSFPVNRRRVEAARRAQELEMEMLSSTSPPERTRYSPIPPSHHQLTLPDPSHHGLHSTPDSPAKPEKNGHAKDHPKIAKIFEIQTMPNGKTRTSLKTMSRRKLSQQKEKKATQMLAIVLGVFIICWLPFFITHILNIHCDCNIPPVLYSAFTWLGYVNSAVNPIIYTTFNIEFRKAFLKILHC

| Structure (SMILES) | IC50 [1] [nM] | Ki [2] [nM] | Ki [3] [nM] |
| --- | --- | --- | --- |
| CN(C)CCCN1c2ccccc2CCc2ccccc21 [IMIPRAMINE] | 410 | – | – |
| CC(CN1c2ccccc2Sc2ccccc21)N(C)C (centres undefined) [PROMETHAZINE] | 100 | – | – |
| O=C1Cc2cc(CCN3CCN(c4nsc5ccccc45)CC3)c(Cl)cc2N1 [ZIPRASIDONE] | – | 11 | 6 |
